In patent US20110038952A1, “GAMBOGIC ACID GLYCOSIDE DERIVATIVES AND ANALOGS, THEIR PREPARATION METHODS AND APPLICATIONS” (priority 2007, published 2011):
pIC50: −log10 of the molar value. Values belong to the molecule of their own block, whether it stands above or below them.

How the values were obtained:
mice sarcoma S180 = assay: Growth inhibition of S180 sarcoma in mice; type: in vivo
Description: (§1) Test samples: example compounds 18, 24, 25, 26 and 27
(§2) Test animals: Kunming kinds of healthy mice (19-21 g), 10 mice (5 male and 5 female)/group, from Beijing Institute of Military Medical Sciences Animal Center.
(§3) Tumor strains: mice sarcoma S180 for ascites passaged from Beijing Academy of Military Medical Institute of Pharmacology.
(§4) Xenografts cultured S180 tumor cells were implanted subcutaneously into the flank region of mice and tumors were allowed to grow to the desired average size of 100 mg. The mice were randomized into control and treatment groups with 10 mice per group. The control group was injected with the vehicle used to dissolve the drug. Other groups received the test compounds (example compound 18, 24, 25, 26 and 27) and positive group, cyclophosphamide (CTX) and 5-fluorouracil (5-FU) at the dose and schedule as indicated in Table VI. Injections were I.V. via the tail vein.

[1] = Body weight of mice in the S180 sarcoma study
Description: as §1, §2, §3, §4

[2] = Chronic toxicity, 30 days, mice
Protocol: Animals were given an injection in the tail vein with approximately 100 μl volume of compound formulation or vehicle formulation. Mice body weights were measured daily along with daily observation for 30 days.
(1) The general behavior, body weight and organ weight of animal.
(2) Blood test: white blood cells (WB), red blood cells (RB), hemoglobin (Hb), alanine aminotransferase (ALT), aspartate aminotransferase (AST), alkaline phosphatase (ALP), serum uric acid (UA), blood urea (UREA) and creatinine (Cr).
(3) Pathological examination: heart, liver, spleen, lung and kidney.

[3] = tested on: human lung cancer cell line NCI-H460; assay: In vitro anti-cancer cell experiment (MTT), NCI-H460; type: cell-based; conditions: NCI-H460, P<0.05
Protocol: (§5) a. Cell lines: Human pancreatic cancer cell line Panc-1, human colorectal cancer cell line HT29 and human lung cancer cell line NCI-H460; the medium: s DMEM (Gibco BRL), containing 10% fetal calf serum (Gibco BRL) and 2 mM L-glutamine (Gibco BRL).
(§6) b. Test samples: example compounds 3, 18, 25 and 27.
(§7) The samples were dissolved in dimethyl sulfoxide (DMSO, Sigma, United States) and medium was added to the final concentration of 0.5%. Cisplatin was as positive control of (CDDP, purity 96%, from Kunming Institute of Precious Metals).
(§8) c. Method: cells were digested with trypsin and dispersed into single cells in the medium containing penicillin (25 U/ml) and streptomycin (25 μg/ml). The cells were seeded in 96-well culture plates (Corning Incorporated), at 37° C., in a humidified atmosphere with 5% CO2 present for 24 hours. The culture medium was removed, […] test compounds were added, cultured for 48 hours. Culture medium was removed and […] (MTT, USA Sigma products) was added. The result was assayed by SK601-based microplate reader (Japan Seikagaku company's products), 570 nm/630 nm optical density (OD).
(§9) Calculation of cell viability: (Experimental group OD/control OD)×100%; Positive control CDDP was treated in the same way.

[4] = tested on: Human pancreatic cancer cell line Panc-1; assay: In vitro anti-cancer cell experiment (MTT), Panc-1; type: cell-based
Protocol: as §5, §6, §7, §8, §9

[5] = tested on: human colorectal cancer cell line HT29; assay: In vitro anti-cancer cell experiment (MTT), HT29; type: cell-based; conditions: for IC50 (50% inhibition of cell viability, MTT): HT29, P<0.05
Protocol: as §5, §6, §7, §8, §9

[6] = S180 mice, I.V. tail vein, 10 mg/kg
[7] = S180 mice, 24 one dose, 25 three doses, 26 three doses, 27 one dose
[8] = mice, tail vein, 2, 4 and 8 mg/kg, 30 days, vs control group
[9] = S180 mice, I.V. tail vein, 4 mg/kg
[10] = S180 mice, I.V. tail vein, 8 mg/kg
[11] = S180 mice, I.V. tail vein, 12 mg/kg
[12] = S180 mice, I.V. tail vein, 25 mg/kg
[13] = S180 mice, I.V. tail vein, 5 mg/kg
[14] = S180 mice, I.V. tail vein, 15 mg/kg
[15] = S180 mice, I.V. tail vein, 1 mg/kg
[16] = S180 mice, I.V. tail vein, 2 mg/kg

Molecule: COC(=O)/C(C)=C\CC12OC(C)(C)C3C[C@H](C=C4C(=O)c5c(OC6O[C@H](CO)[C@@H](O)[C@@H](O)[C@H]6O)c6c(c(CC=C(C)C)c5OC431)OC(C)(CCC=C(C)C)C=C6)C2=O (stereo partly drawn) [Example 24, Methyl-6-O-D-allosyl gambogate]
- Inhibition rate (%) (mice sarcoma S180; [6]): 61.0%
- Tumor weight (mice sarcoma S180; [6]): 0.94 ± 0.26 g
- anti-tumor efficacy (in vivo), statistical significance (mice sarcoma S180; [7]): statistically significant
- body weight/g After ad. ([1]; mouse, in vivo, iv, 10 mg/kg): 19.77 ± 1.88 g
- body weight/g Before ad. ([1]; mouse, in vivo, iv, 10 mg/kg): 21.67 ± 1.26 g
- body weight/g Without tumor ([1]; mouse, in vivo, iv, 10 mg/kg): 18.89 ± 1.45 g

Molecule: COC(=O)/C(C)=C\CC12OC(C)(C)C3C[C@H](C=C4C(=O)c5c(OC(=O)c6ccc(OC7O[C@H](CO)[C@@H](O)[C@@H](O)[C@H]7O)cc6)c6c(c(CC=C(C)C)c5OC431)OC(C)(CCC=C(C)C)C=C6)C2=O (stereo partly drawn) [Example 26, Methyl-6-(4-O-D-allosyl)benzoyl gambogate]
- alanine aminotransferase (ALT) ([2]; high dose group, recovery to normal level): slightly incretion
- Pathological examination: heart [2, 8]: no abnormal of heart tissue
- Pathological examination: liver [2, 8]: no abnormal tissue in rat liver slices
- Pathological examination: lung [2, 8]: no abnormal tissue in rat lung slices
- Pathological examination: renal [2, 8]: no abnormal tissue in rat renal slices
- Pathological examination: spleen [2, 8]: no abnormal tissue in rat spleen slices
- toxic pathological changes of the heart, liver, spleen, lung and kidney ([2]; three dose mice groups, continuous administration for 30 days): no toxic pathological changes
- Inhibition rate (%) (mice sarcoma S180; [9]): 53.7%
- Tumor weight (mice sarcoma S180; [9]): 1.12 ± 0.40 g
- Inhibition rate (%) (mice sarcoma S180; [10]): 60.2%
- Tumor weight (mice sarcoma S180; [10]): 0.96 ± 0.32 g
- Inhibition rate (%) (mice sarcoma S180; [11]): 69.3%
- Tumor weight (mice sarcoma S180; [11]): 0.74 ± 0.11 g
- anti-tumor efficacy (in vivo), statistical significance (mice sarcoma S180; [7]): statistically significant
- body weight/g After ad. ([1]; mouse, in vivo, iv, 4 mg/kg): 23.71 ± 3.85 g
- body weight/g Before ad. ([1]; mouse, in vivo, iv, 4 mg/kg): 25.89 ± 2.62 g
- body weight/g Without tumor ([1]; mouse, in vivo, iv, 4 mg/kg): 22.54 ± 3.42 g
- body weight/g After ad. ([1]; mouse, in vivo, iv, 8 mg/kg): 21.42 ± 0.88 g
- body weight/g Before ad. ([1]; mouse, in vivo, iv, 8 mg/kg): 24.41 ± 2.28 g
- body weight/g Without tumor ([1]; mouse, in vivo, iv, 8 mg/kg): 20.56 ± 0.54 g
- body weight/g After ad. ([1]; mouse, in vivo, iv, 12 mg/kg): 26.71 ± 5.56 g
- body weight/g Before ad. ([1]; mouse, in vivo, iv, 12 mg/kg): 25.58 ± 2.48 g
- body weight/g Without tumor ([1]; mouse, in vivo, iv, 12 mg/kg): 26.07 ± 5.40 g

Molecule: O=P1(N(CCCl)CCCl)NCCCO1 (centres unmarked) [CTX, cyclophosphamide, reference compound]
- Inhibition rate (%) (mice sarcoma S180; [12]): 48.6%
- Tumor weight (mice sarcoma S180; [12]): 1.24 ± 0.50 g
- body weight/g Without tumor [1, 12]: 23.94 ± 2.60 g
- body weight/g After ad. ([1]; S180 mice, I.V. tail vein, 25 mg/kg, after administration): 25.44 ± 2.92 g
- body weight/g Before ad. ([1]; S180 mice, I.V. tail vein, 25 mg/kg, before administration): 22.64 ± 1.28 g

- IC50 (the compound concentration producing 50% inhibition of colony formation) on NCI-H460 [3]: 6.18 µg/mL
- IC50 (the compound concentration producing 50% inhibition of colony formation) on Panc-1 ([4]; Panc-1, P<0.05): 23.4 µg/mL
Molecule: CC(C)=CCCC1(C)C=Cc2c(O)c3c(c(CC=C(C)C)c2O1)OC12C(=C[C@H]4CC1C(C)(C)OC2(C/C=C(/C)C(=O)OCCO)C4=O)C3=O (some centres unmarked) [Example 3, Ethylene Glycol Gambogate]

- IC50 (the compound concentration producing 50% inhibition of colony formation) on NCI-H460 [3]: 4.73 µg/mL
Molecule: CCCCCN(CCCCC)C(=O)/C(C)=C\CC12OC(C)(C)C3C[C@H](C=C4C(=O)c5c(O)c6c(c(CC=C(C)C)c5OC431)OC(C)(CCC=C(C)C)C=C6)C2=O (some centres unmarked) [Example 18, Gambogyl Dipentylamine]
- Inhibition rate (%) (mice sarcoma S180; [13]): 40.3%
- Tumor weight (mice sarcoma S180; [13]): 1.44 ± 0.39 g
- Inhibition rate (%) (mice sarcoma S180; [6]): 52.5%
- Tumor weight (mice sarcoma S180; [6]): 1.14 ± 0.42 g
- body weight/g After ad. ([1]; mouse, in vivo, iv, 5 mg/kg): 27.91 ± 4.08 g
- body weight/g Before ad. ([1]; mouse, in vivo, iv, 5 mg/kg): 22.80 ± 1.73 g
- body weight/g Without tumor ([1]; mouse, in vivo, iv, 5 mg/kg): 26.49 ± 4.62 g
- body weight/g After ad. ([1]; mouse, in vivo, iv, 10 mg/kg): 26.08 ± 2.8 g
- body weight/g Before ad. ([1]; mouse, in vivo, iv, 10 mg/kg): 27.32 ± 2.2 g
- body weight/g Without tumor ([1]; mouse, in vivo, iv, 10 mg/kg): 25.06 ± 2.09 g

- pIC50 ([4]; Homo sapiens, Panc-1, 48 hours, MTT): 3.71
- pIC50 ([5]; Homo sapiens, HT-29, HT29, 48 hours, MTT, second of two HT29 columns): 4.03
Molecule: O=c1[nH]cc(F)c(=O)[nH]1 [Example 5-FU, 5-fluorouracil, reference compound]
- Inhibition rate (%) (mice sarcoma S180; [14]): 43.2%
- Tumor weight (mice sarcoma S180; [14]): 1.37 ± .033 g
- body weight/g After ad. ([1]; mouse, in vivo, iv, 15 mg/kg): 28.66 ± 2.89 g
- body weight/g Before ad. ([1]; mouse, in vivo, iv, 15 mg/kg): 23.07 ± 1.75 g
- body weight/g Without tumor ([1]; mouse, in vivo, iv, 15 mg/kg): 27.19 ± 2.88 g

- IC50 (50% inhibition of cell viability, MTT) [5]: 3.75 µg/mL
Molecule: 9,10-Dihydro-10-(N-methyl-1-naphthoylamino) gambogyl (N-methyl)-1-naphthoylamine [Example 25]
- Inhibition rate (%) (mice sarcoma S180; [15]): 44.6%
- Tumor weight (mice sarcoma S180; [15]): 1.34 ± 0.47 g
- Inhibition rate (%) (mice sarcoma S180; [16]): 58.3%
- Tumor weight (mice sarcoma S180; [16]): 1.00 ± 0.34 g
- Inhibition rate (%) (mice sarcoma S180; [9]): 65.2%
- Tumor weight (mice sarcoma S180; [9]): 0.84 ± 0.35 g
- anti-tumor efficacy (in vivo), statistical significance (mice sarcoma S180; [7]): statistically significant
- body weight/g After ad. ([1]; mouse, in vivo, iv, 1 mg/kg): 24.75 ± 2.56 g
- body weight/g Before ad. ([1]; mouse, in vivo, iv, 1 mg/kg): 22.59 ± 1.36 g
- body weight/g Without tumor ([1]; mouse, in vivo, iv, 1 mg/kg): 23.27 ± 2.16 g
- body weight/g After ad. ([1]; mouse, in vivo, iv, 2 mg/kg): 22.75 ± 3.51 g
- body weight/g Before ad. ([1]; mouse, in vivo, iv, 2 mg/kg): 22.36 ± 1.30 g
- body weight/g Without tumor ([1]; mouse, in vivo, iv, 2 mg/kg): 21.69 ± 3.13 g
- body weight/g After ad. ([1]; mouse, in vivo, iv, 4 mg/kg): 21.47 ± 3.69 g
- body weight/g Before ad. ([1]; mouse, in vivo, iv, 4 mg/kg): 22.38 ± 1.80 g
- body weight/g Without tumor ([1]; mouse, in vivo, iv, 4 mg/kg): 20.77 ± 3.37 g

Molecule: CC(C)=CCCC1(C)C=Cc2c(c(CC=C(C)C)c3c(c2OC(=O)c2ccc(OC4O[C@H](CO)[C@@H](O)[C@@H](O)[C@H]4O)cc2)C(=O)C2=C[C@H]4CC5C(C)(C)OC(C/C=C(/C)C(=O)N(C)Cc6cccc7ccccc67)(C4=O)C25O3)O1 (stereo partly drawn) [Example 27, 6-(4-O-D-Allosylbenzoyl) gambogyl (N-methyl-1-naphthalene) methylamine]
- anti-tumor efficacy (in vivo), statistical significance (mice sarcoma S180; mouse, in vivo): statistically significant
- Inhibition rate (%) (mice sarcoma S180; mouse, in vivo, iv, 25 mg/kg): 32.5%
- Tumor weight (mice sarcoma S180; mouse, in vivo, iv, 25 mg/kg): 1.63 ± 0.47 g
- Inhibition rate (%) (mice sarcoma S180; mouse, in vivo, iv, 30 mg/kg): 37.0%
- Tumor weight (mice sarcoma S180; mouse, in vivo, iv, 30 mg/kg): 1.52 ± 0.30 g
- IC50 (50% inhibition of cell viability, MTT) [5]: 1.19 µg/mL
- body weight/g After ad. ([1]; mouse, in vivo, iv, 25 mg/kg): 20.83 ± 1.36 g
- body weight/g Before ad. ([1]; mouse, in vivo, iv, 25 mg/kg): 20.90 ± 1.06 g
- body weight/g Without tumor ([1]; mouse, in vivo, iv, 25 mg/kg): 19.00 ± 1.39 g
- body weight/g After ad. ([1]; mouse, in vivo, iv, 30 mg/kg): 20.22 ± 2.11 g
- body weight/g Before ad. ([1]; mouse, in vivo, iv, 30 mg/kg): 19.07 ± 1.40 g
- body weight/g Without tumor ([1]; mouse, in vivo, iv, 30 mg/kg): 18.67 ± 2.08 g
